Like-named read-outs stand apart in the source and are kept apart here.
Legend:
C. violaceum ATCC 31532 [1] = assay: Violacein extraction assay (QS-mediated violacein production); type: cell-based, Chromobacterium violaceum; conditions: for inhibition at 400 µM: ATCC31532, 24 h, read-out: Inhibition-% of violacein production
Experimental: (§1) The initial screening of compound library was conducted using two strains of C. violaceum as model bacterium, and two assays (violacein extraction and resazurin staining) in parallel as recently optimized in [26]. For the screening assays, overnight cultures of C. violaceum were diluted in LB broth supplemented with yeast extract (LBY) (0.1% w/v, Sigma Aldrich, St. Louis, MO, USA). Culture of C. violaceum CV026 was further supplemented with 0.5 µM N-(β-ketocaproyl)-L-Homoserine lactone (3-O-C6-(L)-HSL, Cayman chemicals, Ann Arbor, MI, USA) to induce the violacein production. Bacteria (10^6 CFU/mL) was exposed to compounds (400 µM) in a total volume of 200 µL in 96-microtiter well plates (Nunc, Roskilde, Denmark), and incubated at 27 °C, with shaking at 200 rpm for 24 h. DMSO was added in untreated control wells and bacteria-free wells with only LBY were included controls. Additionally, autoinducer-free wells containing only bacteria were included in C. violaceum CV026 plates. Plates were prepared in duplicates. Quercetin dihydrate (Carl Roth GmbH, Karlsruhe, Germany) at 400 µM was used as positive control in violacein extraction assay, and azithromycin (Cayman chemicals, Ann Arbor, MI, USA) at 10 µM in viability assay. Both control compounds were prepared in DMSO. DMSO concentration was 2.5% throughout the experiments.
(§2) After incubation period of 24 h, plates were centrifuged (Allegra™ X-12R Benchtop centrifuge, Beckman Coulter Inc., Fullerton, CA, USA) at 3000 rpm for 10 min to precipitate the violacein. Supernatants were discarded from the wells by pipetting, and pellets were re-suspended in 200 μL of 96% ethanol by scraping and mixing followed by centrifugation (3000 rpm, 10 min). Thereafter, 100 μL of supernatants were transferred to sterile 96-microtiter well plates, and violacein was quantified by reading the optical density at 595 nm using Varioskan Flash. Inhibition of violacein production was expressed as inhibition percentages of the untreated biofilms (Equation (1)):Inhibition-% = [(untreated control OD595 − sample OD595)/(untreated control OD595 − media control OD595)] × 100%(1) in which untreated control = C. violaceum + DMSO, media control = LBY, and sample = C. violaceum treated with a compound. Later on, violacein extraction assay was also utilized for the determination of half inhibitory concentrations of the compounds.

C. violaceum CV026 = assay: Violacein extraction assay (QS-mediated violacein production), mutant strain with exogenous autoinducer; type: cell-based, Chromobacterium violaceum; conditions: for inhibition at 400 µM: Chromobacterium violaceum, CV026, 24 h, read-out: Inhibition-% of violacein production
Experimental: as §1, §2

C. violaceum ATCC 31532 [2] = assay: Violacein extraction assay (QS-mediated violacein production); type: cell-based; conditions: Chromobacterium violaceum
cancer cell lines = tested on: cancer cell lines; parameters: method as in ref 56 = [56]; 56. National Center for Biotechnology Information PubChem BioAssay Database Available online: https://pubchem.ncbi.nlm.nih.gov/bioassay/924 (accessed on 28 March 2018); conditions: PubChem Bioassay database ref 56; cited from earlier work
[3] = tested on: human lung (HL) epithelial cells; assay: Cytotoxicity testing (CellTiter Glo); type: cell-based; conditions: 200 µM, 24 h exposure, positive control
Experimental: (§3) Human lung (HL) epithelial cells were grown in RPMI 1640 (Biowhittaker, Lonza, Viewers, Bornem, Belgium) supplemented with 10% inactivated fetal bovine serum (FBS), 2 mM L-glutamine and gentamycin 20 µg/mL, and mouse monocyte macrophage RAW 264.7 cells in DMEM medium supplemented with 10% FBS and 20 µg/mL gentamycin. Cells (3 × 10^5 cells/mL) were seeded into 96-microtiter well plates (Cellstar TC, Greiner Bio-One GmbH, Frickenhausen, Germany), 200 µL per well, and incubated at 37 °C in 5% CO2 24 h before exposure to the compounds. After the incubation, culture medium was discarded, the wells were washed with PBS, and the compound dilutions prepared in culture media were added as triplicates to a final volume of 200 µL. Usnic acid (200 µM, Sigma Aldrich, St. Louis, MO, USA) was included as positive control and DMSO (1%) as solvent control. Plates were incubated for additional 24 h. At the end of 24 h, media was removed, wells were washed twice with PBS and 100 µL of PBS was added. CellTiter Glo® reagent (Promega, Madison, WI, USA) was prepared according to manufacturer’s instructions, and 100 µL was added to the wells. The plates were shaken for two minutes and equilibrated at room temperature for 10 min prior to measuring the luminescence using Varioskan LUX multimode plate reader (Thermo Scientific, Vantaa, Finland). Inhibition of cell viability was calculated in relation to the untreated cells.

[4] = tested on: mouse monocyte macrophage (RAW 264.7) cells; assay: Cytotoxicity testing (CellTiter Glo); type: cell-based; conditions: 200 µM, 24 h exposure, positive control
Experimental: as §3

[5] = Chromobacterium violaceum, primary screening, 400 µM, 24 h, C. violaceum ATCC 31532
[6] = ATCC31532, 40 µM, C. violaceum ATCC 31532, mean ± SD of three independent tests, read-out: Inhibition-% of violacein production
[7] = ATCC31532, read-out: Inhibition-% of violacein production

Structure (SMILES): CC(C)COc1ccc(C(=O)N/C(=C\c2ccccc2)C(=O)NCCNC(=O)/C(=C\c2ccccc2)NC(=O)c2ccc(OCC(C)C)cc2)cc1 [Compound 2, (2E)-N-[2-((2Z)-2-{[4-(2-methylpropoxy)phenyl]carbonylamino}-3-phenylprop-2-enoylamino)ethyl]-2-{[4-(2-methylpropoxy)phenyl]carbonylamino}-3-phenylprop-2-en amide]
- inhibition at 400 µM (C. violaceum ATCC 31532 [1]; [5]): 19%

Structure (SMILES): O=C(NCCCCCCNC(=O)/C(=C\c1ccccc1)NC(=O)c1ccccc1)/C(=C/c1ccccc1)NC(=O)c1ccccc1 [Compound 3, (2E)-N-{6-[(2Z)-3-phenyl-2-(phenylcarbonylamino)prop-2-enoylamino]hexyl}-3-phenyl-2-(phenylcarbonylamino)prop-2-enamide]
- inhibition at 400 µM (C. violaceum ATCC 31532 [1]; [5]): 41%
- inhibition at 400 µM (C. violaceum CV026): 41.3%

Structure (SMILES): Nc1ccn(C2OC(CO)C3OP(=O)(O)OC32)c(=O)n1 (stereo not drawn) [Compound 144, 8-(4-amino-2-oxohydropyrimidinyl)-3-hydroxy-6-(hydroxymethyl)-2,4,7-trioxa-3-phosphabicyclo[3.3.0]octan-3-one]
- inhibition at 400 µM (C. violaceum ATCC 31532 [1]; [5]): 94.7%
- inhibition at 400 µM (C. violaceum CV026): 97.2%
- inhibition at 40 µM (C. violaceum ATCC 31532 [2]; [6]): 0%

Structure (SMILES): C=C(CBr)C1Cc2c(ccc3c2OC2COc4cc(OC)c(OC)cc4C2C3=O)O1 (stereo not drawn) [Compound 341, 2-[1-(bromomethyl)vinyl]-8,9-dimethoxy-1,2-dihydrochromano[3,4-b]furano[2,3-h]chroman-6-one]
- inhibition at 400 µM (C. violaceum ATCC 31532 [1]; Chromobacterium violaceum): 93.4%
- inhibition at 400 µM (C. violaceum CV026): 95.2%
- inhibition at 40 µM (C. violaceum ATCC 31532 [2]; [7]): 26.9 ± 7.7%

Structure (SMILES): O=c1c(O)c(-c2cccnc2)oc2ccc(Cl)cc12 [Compound 575, 6-chloro-3-hydroxy-2-(3-pyridyl)chromen-4-one]
- inhibition at 400 µM (C. violaceum ATCC 31532 [1]; [5]): 94.1%
- inhibition at 400 µM (C. violaceum CV026): 94.3%
- inhibition at 40 µM (C. violaceum ATCC 31532 [2]; [6]): 60.9 ± 4.1%
- Anti-cancer activity (cancer cell lines): not active

Structure (SMILES): COc1ccc2c(c1)c(CC(=O)NCCCN1CCCCC1)c(C)n2C(=O)c1ccc(Cl)cc1 [Compound 712, 2-{1-[(4-chlorophenyl)carbonyl]-5-methoxy-2-methylindol-3-yl}-N-(3-piperidylpropyl)acetamide]
- inhibition at 400 µM (C. violaceum CV026): 94.3%

Structure (SMILES): C1COCCN1.COC(=O)C1=C(C)NC(S)=C(C#N)C1c1cc(OC)c(OC)c(OC)c1 (stereo not drawn) [Compound 1016, methyl 5-cyano-2-methyl-6-sulfanyl-4-(3,4,5-trimethoxyphenyl)-1,4-dihydropyridine-3-carboxylate, morpholine]
- Inhibition-% of violacein production (C. violaceum ATCC 31532 [1]; primary screening, 400 µM, 24 h, C. violaceum ATCC 31532): 34.1%
- Inhibition-% of violacein production (C. violaceum CV026; primary screening, 400 µM, 24 h, C. violaceum CV026): 97.5%

Structure (SMILES): Cc1cc(C(=O)NC(Cc2ccccc2)C(=O)O)c(C)o1 (stereo not drawn) [Compound 1214, 2-[(2,5-dimethyl(3-furyl))carbonylamino]-3-phenylpropanoic acid]
- inhibition at 400 µM (C. violaceum CV026): 103%

Structure (SMILES): Cc1ccc2c(C)c(-c3ccc(Cl)cc3)c(=O)oc2c1 [Compound 1352]
- inhibition at 400 µM (C. violaceum ATCC 31532 [1]; [5]): 18.8%
- inhibition at 400 µM (C. violaceum CV026): 99.6%

Structure (SMILES): CCN(CC)C(=O)c1cc(=O)n(CC(=O)Nc2c(C)cc(C)cc2C)c2ccccc12 [Compound 1406, 2-[4-(N,N-diethylcarbamoyl)-2-oxohydroquinolyl]-N-(2,4,6-trimethylphenyl)acetamide]
- inhibition at 400 µM (C. violaceum ATCC 31532 [1]; [5]): 40%
- inhibition at 400 µM (C. violaceum CV026): 93.3%

Structure (SMILES): CCn1cnc2cc(NC(=O)c3cc(OC)c(OC)c(OC)c3)ccc2c1=O [Compound 1508, N-(3-ethyl-4-oxo(3-hydroquinazolin-7-yl))(3,4,5-trimethoxyphenyl)carboxamide]
- inhibition at 400 µM (C. violaceum CV026): 93.4%

Structure (SMILES): COc1cc([C@H]2OC[C@@H]3C(c4ccc(OC5OC(COC6OC(C)C(O)C(O)C6O)C(O)C(O)C5O)c(OC)c4)OC[C@H]23)ccc1O (stereo partly drawn) [Compound 1698, 2-[(6-{4-[(6S,1R,5R)-6-(4-hydroxy-3-methoxyphenyl)-3,7-dioxabicyclo[3.3.0]oct-2-yl]-2-methoxyphenoxy}-3,4,5-trihydroxy(2H-3,4,5,6-tetrahydropyran-2-yl))methoxy]-6-methyl-2H-3,4,5,6-tetrahydropyran-3,4,5-triol]
- inhibition at 400 µM (C. violaceum ATCC 31532 [1]; [5]): 91.3%
- inhibition at 400 µM (C. violaceum CV026): 96.1%
- inhibition at 40 µM (C. violaceum ATCC 31532 [2]; [6]): 2.6 ± 4.6%

Structure (SMILES): CCOc1ccc2oc(=O)cc(CN3CCNCC3)c2c1 [Compound 1852, 6-ethoxy-4-(piperazinylmethyl)chromen-2-one]
- inhibition at 400 µM (C. violaceum ATCC 31532 [1]; [5]): 29.7%
- inhibition at 400 µM (C. violaceum CV026): 95.2%

Structure (SMILES): O=C(CSc1nc2c(=O)[nH]cnc2n1CC1CCCO1)Nc1ccc(F)c(Cl)c1 (stereo not drawn) [Compound 1905, N-(3-chloro-4-fluorophenyl)-2-[6-oxo-9-(oxolan-2-ylmethyl)hydropurin-8-ylthio] acetamide]
- inhibition at 400 µM (C. violaceum ATCC 31532 [1]; [5]): 4.7%
- inhibition at 400 µM (C. violaceum CV026): 107%

Structure (SMILES): Cc1sc(N)nc1-c1c[nH]c2ccccc12 [Compound 2307, 4-indol-3-yl-5-methyl-1,3-thiazole-2-ylamine]
- inhibition at 400 µM (C. violaceum ATCC 31532 [1]; [5]): 98.8%
- inhibition at 400 µM (C. violaceum CV026): 98.6%
- inhibition at 40 µM (C. violaceum ATCC 31532 [2]; [6]): 76.1 ± 3.3%

Structure (SMILES): COc1ccc(/C=C/C(=O)c2ccc(O)cc2C)cc1 [Compound 2372, (2E)-1-(4-hydroxy-2-methylphenyl)-3-(4-methoxyphenyl)prop-2-en-1-one]
- inhibition at 400 µM (C. violaceum ATCC 31532 [1]; [5]): 18.3%
- inhibition at 400 µM (C. violaceum CV026): 91.1%

Structure (SMILES): NC(=O)CC1CCCCN1 (stereo not drawn) [Compound 2584, 2-(2-piperidyl)acetamide]
- inhibition at 400 µM (C. violaceum ATCC 31532 [1]; [5]): 20.5%
- inhibition at 400 µM (C. violaceum CV026): 106%

Structure (SMILES): CCOc1ccc(C2NCCc3c2[nH]c2ccccc32)cc1 (stereo not drawn) [Compound 2666, 4-ethoxy-1-(1,2,3,4-tetrahydrobeta-carbolinyl)benzene]
- inhibition at 400 µM (C. violaceum CV026): 90.8%

Structure (SMILES): O=c1cc(C(Cl)(Cl)Cl)oc2ccccc12 [Compound 2712, 2-(trichloromethyl)chromen-4-one]
- inhibition at 400 µM (C. violaceum CV026): 106%

Structure (SMILES): COc1ccccc1-c1c(C(F)(F)F)oc2cc(OC(=O)c3ccccc3F)ccc2c1=O [Compound 2909, 3-(2-methoxyphenyl)-4-oxo-2-(trifluoromethyl)chromen-7-yl 2-fluorobenzoate]
- inhibition at 400 µM (C. violaceum ATCC 31532 [1]; [5]): 12.1%
- inhibition at 400 µM (C. violaceum CV026): 99.9%

Structure (SMILES): O=C(CCc1cccc(F)c1)NC(CO)C(O)c1ccccc1 (stereo not drawn) [Compound 2916, 3-(3-fluorophenyl)-N-[2-hydroxy-1-(hydroxymethyl)-2-phenylethyl]propanamide]
- inhibition at 400 µM (C. violaceum ATCC 31532 [1]; [5]): 19.7%
- inhibition at 400 µM (C. violaceum CV026): 98.3%

Structure (SMILES): O=c1c(O)c(-c2ccc(O)c(O)c2)oc2cc(O)cc(O)c12 [Que, quercetin, reference compound]
- inhibition at 400 µM (C. violaceum ATCC 31532 [1]; Chromobacterium violaceum): 99.7%
- IC50 (C. violaceum ATCC 31532 [1]; Chromobacterium violaceum, ATCC31532, read-out: IC50 of violacein production): 3.1 µM
- inhibition at 400 µM (C. violaceum CV026): 98.9%
- inhibition at 40 µM (C. violaceum ATCC 31532 [2]; [7]): 91.8 ± 2.3%

Structure (SMILES): CC(=O)c1c(O)c(C)c(O)c2c1OC1=CC(=O)C(C(C)=O)C(=O)C12C (stereo not drawn) [Usnic acid, reference compound]
- Inhibition-% of cell viability [3]: 90.0 ± 4.7%
- Inhibition-% of cell viability [4]: 98.5 ± 0.6%

Source: article PMC5983823, “Screening of Natural Product Derivatives Identifies Two Structurally Related Flavonoids as Potent Quorum Sensing Inhibitors against Gram-Negative Bacteria” (International Journal of Molecular Sciences, 2018)
